Columns and labels:
Experiment in all cases: greenhouse post-emergence herbicidal test
ABUTH = assay type: in vivo, Abutilon theophrast; set-up: key to herbicidal activity against ABUTH found: rating on a scale from 0 to 100; conditions: post emergence
In short: (§1)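 Seeds sown per species in loamy sand with roughly 4.6% humus; seedlings raised to 1 to 15 cm, then treated with water-borne spray of a 10% by weight emulsion concentrate. Response assessed on day 20 from 0 (normal growth) to 100 (destroyed).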

ALOMY = assay type: in vivo, Alopecurus myosuroides; set-up: key to herbicidal activity against ALOMY found: rating on a scale from 0 to 100; conditions: post emergence
In short: as §1

GALAP = assay type: in vivo, Galium aparine; set-up: key to herbicidal activity against GALAP found: rating on a scale from 0 to 100; conditions: post emergence
In short: (§2)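 Herbicidal activity scored on a 0 (no damage) to 100 (plants destroyed) scale, usually 20 days after water-based spraying of 1–15 cm plants grown in loamy sand at 10-25 °C or 20-35 °C depending on species. Components were applied from 10% emulsion concentrates; Colby's E=X+Y−(X·Y/100) gives the additive expectation.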

GERDI = assay type: in vivo, Geranium dissectum; set-up: key to herbicidal activity against GERDI found: rating on a scale from 0 to 100; conditions: post emergence
In short: as §1

IPOHE = assay type: in vivo, Ipomoea hederacea; set-up: key to herbicidal activity against IPOHE found: rating on a scale from 0 to 100; conditions: post emergence
In short: as §2

MATCH = assay type: in vivo, Matricaria recutita; set-up: key to herbicidal activity against MATCH found: rating on a scale from 0 to 100; conditions: post emergence
In short: as §1

STEME = assay type: in vivo, Stellaria media; set-up: key: scale 0 to 100
Method: (§3) The culture containers used were plastic pots containing medium loamy sand with approximately 4.6% of humus and 69.9% sand as substrate. The seeds of the test plants were sown separately for each species.
(§4) For the post-emergence treatment, the test plants were grown to a plant height of from 1 to 15 cm, depending on the plant habit, and only then treated with the active compounds which had been suspended or emulsified in water. To this end, the test plants were either sown directly, and grown in the same containers, or they were first grown separately as seedlings and transplanted into the test containers a few days prior to treatment.
(§5) Depending on the species, the plants were kept at 10-25° C. and 20-35° C., respectively.
(§6) The test period extended over 1 to 3 weeks. During this time, the plants were tended and their response to the individual treatments was evaluated 20 days after treatment except mentioned otherwise.
(§7) Evaluation was carried out using a scale from 0 to 100. 100 means no emergence of the plants, or complete destruction of at least the above-ground parts, and 0 means no damage or normal course of growth.
(§8) The respective stated components A and B, and, if appropriate, C, were formulated as a 10% by weight strength emulsion concentrate and, with addition of the amount of solvent system, introduced into the spray liquor used for applying the active compound. In the examples, the solvent used was water.
(§9) In the examples below, using the method of S. R. Colby (1967) “Calculating synergistic and antagonistic responses of herbicide combinations”, Weeds 15, p. 22 ff., the value E, which is expected if the activity of the individual active compounds is only additive, was calculated. E=X+Y−(X·Y/100)

ERICA = assay type: in vivo, Conyza canadensis; set-up: key to herbicidal activity against ERICA found: rating on a scale from 0 to 100; conditions: post emergence
In short: as §1

POLCO = assay type: in vivo, Polygonum convolvulus; set-up: key to herbicidal activity against POLCO found: rating on a scale from 0 to 100; conditions: post emergence
In short: as §2

VIOAR = assay type: in vivo, Viola arvensis; set-up: key to herbicidal activity against VIOAR found / herbicidal activity against VIOLA found: rating on a scale from 0 to 100; conditions: post emergence
In short: as §2

AMBEL = assay type: in vivo, Ambrosia artemisiifolia; set-up: key: rating on a scale from 0 to 100
Method: as §3, §4, §5, §6, §7, §8, §9

ECHCG = assay type: in vivo, Echinochloa crus-galli; set-up: key to herbicidal activity against ECHCG found / herbicidal activity against ECHCH found: scale 0 to 100; conditions: post emergence; I.1 31.25 g/ha, B.103 7.5 g/ha a.i.
Method: as §3, §4, §5, §6, §7, §8, §9

KCHSC = assay type: in vivo, Kochia scoparia; set-up: key to herbicidal activity against KCHSC found: rating on a scale from 0 to 100; conditions: post emergence
In short: as §2

PAPRH = assay type: in vivo, Papaver rhoeas; set-up: key: rating on a scale from 0 to 100; conditions: B.103 15 g/ha a.i.
In short: as §1

APESV = assay type: in vivo, Apera spica-venti; set-up: key to herbicidal activity against APESV found: rating on a scale from 0 to 100; conditions: single active, post emergence
In short: as §1

[1] = I.1 31.25 g/ha, B.89 25 g/ha a.i.
[2] = I.1 62.5 g/ha, B.89 12.5 g/ha a.i.
[3] = I.1 62.5 g/ha, B.89 25 g/ha a.i.
[4] = I.1 15.62 g/ha, B.89 25 g/ha a.i.
[5] = application rate a.i.: I.1 31.25 g/ha, B.100 (isoxaflutole) 12.5 g/ha, alone or as mixture (composition 1.100)
[6] = application rate a.i.: I.1 62.5 g/ha, B.100 (isoxaflutole) 12.5 g/ha, alone or as mixture (composition 1.100)
[7] = I.1 31.25 g/ha, B.103 15 g/ha a.i.
[8] = I.1 62.5 g/ha, B.103 7.5 g/ha a.i.
[9] = I.1 62.5 g/ha, B.103 15 g/ha a.i.
[10] = I.1 15.6 g/ha, B.103 7.5 g/ha a.i.
[11] = I.1 31.25 g/ha, B.103 7.5 g/ha a.i.

## C#CCOC(=O)[C@@H](C)Oc1ccc(Oc2ncc(Cl)cc2F)cc1 [B.2, clodinafop-propargyl]
ABUTH; Abutilon theophrasti, post-emergence, 480 h, 15 g/ha a.i., read-out: herbicidal activity against ABUTH found
  pest or weed control at 15 g/ha: 15%
ALOMY; Alopecurus myosuroides, post-emergence, 480 h, 15 g/ha a.i., read-out: herbicidal activity against ALOMY found
  pest or weed control at 15 g/ha: 85%
GALAP; Galium aparine, post-emergence, 480 h, 7.5 g/ha a.i., read-out: herbicidal activity against GALAP found
  pest or weed control at 7.5 g/ha: 0%
GERDI; Geranium dissectum, post-emergence, 480 h, 7.5 g/ha a.i., read-out: herbicidal activity against GERDI found
  pest or weed control at 7.5 g/ha: 0%
IPOHE; Ipomoea hederacea, post-emergence, 480 h, 7.5 g/ha a.i., read-out: herbicidal activity against IPOHE found
  pest or weed control at 7.5 g/ha: 10%
IPOHE; Ipomoea hederacea, post-emergence, 480 h, 15 g/ha a.i., read-out: herbicidal activity against IPOHE found
  pest or weed control at 15 g/ha: 40%
MATCH; Matricaria chamomilla, post-emergence, 480 h, 15 g/ha a.i., read-out: herbicidal activity against MATCH found
  pest or weed control at 15 g/ha: 0%
STEME; 7.5 g/ha a.i.
  herbicidal activity against STEME found: 0

## CS(=O)(=O)NC(=O)c1cc(Oc2ccc(C(F)(F)F)cc2Cl)ccc1[N+](=O)[O-] [B.89, fomesafen]
ABUTH; [1]
  herbicidal activity against ABUTH found: 90
ALOMY; [2]
  herbicidal activity against ALOMY found: 25
ERICA; [3]
  herbicidal activity against ERICA found: 20
GERDI; [4]
  herbicidal activity against GERDI found: 25
GERDI; [2]
  herbicidal activity against GERDI found: 25
GERDI; [3]
  herbicidal activity against GERDI found: 25
IPOHE; [4]
  herbicidal activity against IPOHE found: 85
IPOHE; [1]
  herbicidal activity against IPOHE found: 85
IPOHE; [2]
  herbicidal activity against IPOHE found: 85
IPOHE; [3]
  herbicidal activity against IPOHE found: 85
POLCO; I.1 15.62 g/ha, B.89 12.5 g/ha a.i.
  herbicidal activity against POLCO found: 95
STEME; [4]
  herbicidal activity against STEME found: 0
STEME; I.1 31.25 g/ha, B.89 12.5 g/ha a.i.
  herbicidal activity against STEME found: 0
STEME; [1]
  herbicidal activity against STEME found: 0
VIOAR; [2]
  herbicidal activity against VIOAR found: 55

## CS(=O)(=O)c1cc(C(F)(F)F)ccc1C(=O)c1cnoc1C1CC1 [B.100, isoxaflutole]
AMBEL; [5]
  herbicidal activity against AMBEL found: 45
AMBEL; [6]
  herbicidal activity against AMBEL found: 45
ERICA; [5]
  herbicidal activity against ERICA found: 80
ERICA; [6]
  herbicidal activity against ERICA found: 80
GERDI; [5]
  herbicidal activity against GERDI found: 0
GERDI; [6]
  herbicidal activity against GERDI found: 0
POLCO; [5]
  herbicidal activity against POLCO found: 60
VIOAR; [6]
  herbicidal activity against VIOAR found: 70

## O=C(Nc1ccc(F)cc1)c1cccc(Oc2cccc(C(F)(F)F)c2)n1 [B.103, picolinafen]
ECHCG
  herbicidal activity against ECHCG found: 20
ERICA; [7]
  herbicidal activity against ERICA found: 65
ERICA; [8]
  herbicidal activity against ERICA found: 25
ERICA; [9]
  herbicidal activity against ERICA found: 65
GALAP; [8]
  herbicidal activity against GALAP found: 70
GERDI; [10]
  herbicidal activity against GERDI found: 0
GERDI; [11]
  herbicidal activity against GERDI found: 0
GERDI; [7]
  herbicidal activity against GERDI found: 0
GERDI; [8]
  herbicidal activity against GERDI found: 0
GERDI; [9]
  herbicidal activity against GERDI found: 0
IPOHE; [10]
  herbicidal activity against IPOHE found: 40
IPOHE; [7]
  herbicidal activity against IPOHE found: 60
KCHSC; [11]
  herbicidal activity against KCHSC found: 60
KCHSC; [7]
  herbicidal activity against KCHSC found: 60
KCHSC; [8]
  herbicidal activity against KCHSC found: 60
KCHSC; [9]
  herbicidal activity against KCHSC found: 60
PAPRH; I.1 15.62 g/ha
  herbicidal activity against PAPRH found: 70
PAPRH; I.1 31.25 g/ha
  herbicidal activity against PAPRH found: 70
POLCO; [10]
  herbicidal activity against POLCO found: 40
POLCO; [8]
  herbicidal activity against POLCO found: 40
POLCO; [9]
  herbicidal activity against POLCO found: 70
STEME; I.1 15.62 g/ha, B.103 15 g/ha a.i.
  herbicidal activity against STEME found: 65

## CCc1cccc(C)c1N(C(=O)CCl)[C@@H](C)COC [B.134, S-metolachlor]
ABUTH; applied alone at 250 g/ha a.i.
  herbicidal activity against ABUTH found: 40
ALOMY; applied alone at 250 g/ha a.i.
  herbicidal activity against ALOMY found: 0
ALOMY; applied alone at 500 g/ha a.i.
  herbicidal activity against ALOMY found: 20
AMBEL; applied alone at 250 g/ha a.i.
  herbicidal activity against AMBEL found: 25
AMBEL; applied alone at 500 g/ha a.i.
  herbicidal activity against AMBEL found: 65
ERICA; applied alone at 250 g/ha a.i.
  herbicidal activity against ERICA found: 25
ERICA; applied alone at 500 g/ha a.i.
  herbicidal activity against ERICA found: 35
GALAP; applied alone at 250 g/ha a.i.
  herbicidal activity against GALAP found: 45
GERDI; applied alone at 500 g/ha a.i.
  herbicidal activity against GERDI found: 30
KCHSC; applied alone at 500 g/ha a.i.
  herbicidal activity against KCHSC found: 30
POLCO; applied alone at 250 g/ha a.i.
  herbicidal activity against POLCO found: 35
POLCO; applied alone at 500 g/ha a.i.
  herbicidal activity against POLCO found: 60
VIOAR; applied alone at 250 g/ha a.i.
  herbicidal activity against VIOAR found: 0
VIOAR; applied alone at 500 g/ha a.i.
  herbicidal activity against VIOAR found: 0

## Nc1cc(Cl)nc(C(=O)O)c1Cl [B.144, aminopyralid]
ABUTH; single active, 4 g/ha a.i.
  herbicidal activity against ABUTH found: 0
AMBEL; single active, 8 g/ha a.i.
  herbicidal activity against AMBEL found: 75
APESV; 4 g/ha a.i.
  herbicidal activity against APESV found: 0
KCHSC; single active, 4 g/ha a.i.
  herbicidal activity against KCHSC found: 0
KCHSC; single active, 8 g/ha a.i.
  herbicidal activity against KCHSC found: 0
POLCO; single active, 4 g/ha a.i.
  herbicidal activity against POLCO found: 98
POLCO; single active, 8 g/ha a.i.
  herbicidal activity against POLCO found: 98
VIOAR; single active, 4 g/ha a.i.
  herbicidal activity against VIOLA found: 0

## Cc1ccc2c(c1)[C@H](Nc1nc(N)nc(C(C)F)n1)[C@@H](C)C2 (some centres unmarked) [B.178, indaziflam]
ABUTH; single active, 6 g/ha a.i.
  herbicidal activity against ABUTH found: 60
AMBEL; single active, 6 g/ha a.i.
  herbicidal activity against AMBEL found: 70
APESV; 3 g/ha a.i.
  herbicidal activity against APESV found: 40
ERICA; single active, 3 g/ha a.i.
  herbicidal activity against ERICA found: 15
ERICA; single active, 6 g/ha a.i.
  herbicidal activity against ERICA found: 60
GALAP; single active, 3 g/ha a.i.
  herbicidal activity against GALAP found: 65
GALAP; single active, 6 g/ha a.i.
  herbicidal activity against GALAP found: 60
GERDI; single active, 3 g/ha a.i.
  herbicidal activity against GERDI found: 55
GERDI; single active, 6 g/ha a.i.
  herbicidal activity against GERDI found: 55
KCHSC; single active, 3 g/ha a.i.
  herbicidal activity against KCHSC found: 15
MATCH; single active, 3 g/ha a.i.
  herbicidal activity against MATCH found: 35
